US20230286999A1, “ORGANIC COMPOUND, LIGHT-RECEIVING DEVICE, LIGHT-EMITTING AND LIGHT-RECEIVING APPARATUS, AND ELECTRONIC DEVICE” (Semiconductor Energy Laboratory Co., Ltd., priority 2022, published 2023)

Legend:
[1] = Solubility evaluation using a liquid chromatography mass spectrometer; format: physicochemical; conditions: for Ratio of chromatogram peak areas (Peak area of material/Peak area of solvent × 100), considered as the solubility: 0.5 mg material in 0.25 mL chloroform + 2.5 mL acetonitrile, filtrate after 18 hours, DPAPhA: 1 mg in 1 mL toluene, 5-fold dilution with acetonitrile, 100% = completely dissolved; for solubility compared with FT2TDMN (in words): chloroform/acetonitrile sample
Experimental: In Example 3, the solubilities of materials that can be used for a photoelectric conversion device of one embodiment of the present invention are described. The solubilities of the materials were measured using a liquid chromatography mass spectrometer.
In Example 3, the solubilities of the organic compound (abbreviation: EtHex-FT2TDMN) represented by Structural Formula (100) in Embodiment 1 and the organic compound (abbreviation: EtHex-BisDCVTTt) represented by Structural Formula (200) in Embodiment 1 were evaluated. As a comparative example, FT2TDMN, which is a material having no branched alkyl, was evaluated. Furthermore, DPAPhA, which is a material with high solubility, was also evaluated as a reference sample.
The solubilities were measured using a liquid chromatography mass spectrometer. Specifically, chromatogram peak areas of the solvent and the material in the sample were obtained, the proportion of the peak area of the material to the peak area of the solvent was calculated, and the calculated value was considered as the solubility.
Note that the solubility of the case where the sample is completely dissolved is 100%. In Example 3, DPAPhA is a reference sample that is completely dissolved. In the case where a chromatogram peak is not detected and an MS spectrum is detected from a sample, the mass of the sample is regarded as being lower than the detection limit and the solubility is 0%.
The liquid chromatography mass spectrometer is constructed of ACQUITY H-Class (produced by Waters Corporation) and Xevo™ G2 Q-TOF MS (produced by Waters Corporation), and ACQUITY UPLC (registered trademark) BEH C8 Column ([…], 2.1×100 mm) (produced by Waters Corporation, hereinafter referred to as Column) was used as a column.
Samples of EtHex-FT2TDMN, EtHex-BisDCVTTt, and FT2TDMN used for solubility evaluation were formed. Specifically, in a reagent bottle made of glass were put 0.5 mg of the material and 0.25 mL of chloroform, and ultrasonic treatment was performed for 1 minute. To the obtained mixture, 2.5 mL of acetonitrile was added, and the resulting mixture was left still. After 18 hours, the resulting mixture was filtrated. With the use of the obtained filtrate as a sample, a solubility test for evaluating the solubility was performed using the liquid chromatography mass spectrometer.
Next, the DPAPhA sample used for solubility evaluation was formed. In a reagent bottle made of glass were put 1 mg of the material and 1 mL of toluene, and ultrasonic treatment was performed for 1 minute. Acetonitrile was added to the obtained solution to make a 5-fold dilution. The dilute solution was used as the sample and took the solubility test with the liquid chromatography mass spectrometer.
A measurement method for the solubility test for evaluating the solubility using the liquid chromatography mass spectrometer is described. As a mobile phase A and a mobile phase B, acetonitrile and a formic acid aqueous solution (0.1%) were used, respectively; the velocity of flow of a solvent was 0.5 mL/min; and the sample injection amount was 5 μL.
(§1) For 1 minute from the beginning of the measurement, the ratio of a mobile phase A to a mobile phase B was set to be 75:25. From 1 minute to 9 minutes, measurement was performed with a linear gradient to the ratio of 95:5. After a lapse of 10 minutes, measurement was performed for 5 minutes with the ratio of 95:5 held.
as §1, with “85:15.” for “75:25.”
For 1 minute from the beginning of the measurement, the ratio of a mobile phase A to a mobile phase B was set to be 40:60. From 1 minute to 9 minutes, measurement was performed with a linear gradient to the ratio of 95:5. […]

[2] = Thermogravimetry-differential thermal analysis (TG-DTA); format: physicochemical; conditions: 10° C./min
Experimental: (§2) The thermogravimetry-differential thermal analysis (TG-DTA) of EtHex-FT2TDMN was performed. The measurement was conducted using a high vacuum differential type differential thermal balance (TG-DTA 2410SA, manufactured by Bruker AXS K.K.). The measurement was performed under two conditions. The first measurement was performed at atmospheric pressure at a temperature rising rate of 10° C./min under a nitrogen stream (flow rate: 200 mL/min). The second measurement was performed at 10 Pa at a temperature rising rate of 10° C./min under a nitrogen stream (flow rate: 2 mL/min).
as §2, with “(TG-DTA) of EtHex-BisDCVTTt was performed.” for “(TG-DTA) of EtHex-FT2TDMN was performed.”, “was performed under atmospheric pressure” for “was performed at atmospheric pressure”

[3] = 10 Pa, nitrogen stream 2 mL/min
[4] = atmospheric pressure, nitrogen stream 200 mL/min

Ratio of chromatogram peak areas (Peak area of material/Peak area of solvent × 100), considered as the solubility [1] [%]	chromatogram peak detection in solubility measurement (in words) ([1]; only an MS spectrum was detected, regarded as below detection limit, solubility 0%)	Structure (SMILES)	temperature (decomposition temperature) at which the weight obtained by thermogravimetry was reduced by 5% [2, 3] [°C]	temperature (decomposition temperature) at which the weight obtained by thermogravimetry was reduced by 5% [2, 4] [°C]	solubility compared with FT2TDMN (in words) [1]
100	–	c1ccc(-c2c3ccccc3c(N(c3ccccc3)c3ccc(N(c4ccccc4)c4ccccc4)cc3)c3ccccc23)cc1 [DPAPhA, reference compound]	–	–	–
18	–	CCCCC(CC)Cc1cc(-c2cc3sc(-c4cc(CC(CC)CCCC)c(C=C(C#N)C#N)s4)cc3s2)sc1C=C(C#N)C#N (centres unmarked) [EtHex-FT2TDMN, 2,2′-[5,5′-(thieno[3,2-b]thiophene-2,5-diyl)bis(3-(2-ethylhexyl)thiophene-5,2-diyl)]bis(methan-1-yl-1-ylidene)dimalononitrile]	244	325	favorable solubilities
0	no chromatogram peak was detected	N#CC(C#N)=Cc1ccc(-c2cc3sc(-c4ccc(C=C(C#N)C#N)s4)cc3s2)s1 [FT2TDMN, reference compound]	–	–	–

Structure (SMILES)	Ratio of chromatogram peak areas (Peak area of material/Peak area of solvent × 100), considered as the solubility [1] [%]	chromatogram peak detection in solubility measurement (in words) ([1]; only an MS spectrum was detected, regarded as below detection limit, solubility 0%)	temperature (decomposition temperature) at which the weight obtained by thermogravimetry was reduced by 5% [2, 3] [°C]	temperature (decomposition temperature) at which the weight obtained by thermogravimetry was reduced by 5% [2, 4] [°C]	solubility compared with FT2TDMN (in words) [1]
CCCCC(CC)Cc1cc(-c2cc3sc(-c4cc5sc(-c6cc(CC(CC)CCCC)c(C=C(C#N)C#N)s6)cc5s4)cc3s2)sc1C=C(C#N)C#N (centres unmarked) [EtHex-BisDCVTTt]	3.5	–	295	362	favorable solubilities
